{"source": "patent US20110319405A1", "about": "“Treatment and prevention of diffuse parenchymal lung disease by selective active-site mTOR inhibitors” (The Board of Trustees of the Leland Stanford Junior …, priority 2010, published 2011)", "key": {"IPF fibroblasts": {"system": "IPF fibroblasts", "assay": "Basal expression of stromal proteins in IPF fibroblasts (Western blot)", "type": "cell-based, human", "protocol": "(§1) Cell Culture and Reagents. Lung fibroblasts were isolated from patients undergoing surgical biopsy for the diagnosis of interstitial lung disease or lung transplant for IPF, and non-neoplastic tissue was obtained from patients undergoing surgical lung cancer resection, as described previously (Chang W. T. et al., J Biol Chem., 2001, 276, 2221-7). Fibroblasts were cultured in Dulbecco's modified Eagle's medium (DMEM) supplemented with 10% fetal bovine serum (FBS) at 5% CO2 at 37° C., and were used for studies for up to 5 passages after the initial preparation. For each experiment, cells were plated in culture vessels in DMEM complete medium and cultured until 70-80% in confluence, unless otherwise indicated.\nLung tissue was obtained from patients undergoing surgical biopsy for the diagnosis of interstitial lung disease or lung transplant for IPF, and non-neoplastic tissue was obtained from patients undergoing surgical lung cancer resection. The tissue was minced into small pieces with a scalpel and digested with type I collagenase (1 mg/ml; Invitrogen) and hyaluronidase (125 units/ml; Sigma) at 37° C. with agitation for 18 h in Dulbecco's modified Eagle's medium (DMEM; Invitrogen) supplemented with 10% fetal bovine serum. The dissociated tissues were incubated without shaking for 5 min at room temperature, followed by the separation of cell-enriched supernatant into a new tube. The cell fraction was centrifuged at 250×g for 5 min, and the pellet was then resuspended in DMEM with 10% fetal bovine serum. […] Surviving fibroblasts were cultured in DMEM supplemented with 10% fetal bovine serum at 5% CO2 at 37 ° C. Each fibroblast culture was frozen at its earliest available passage and was used for studies for up to five passages. For each experiment, cells were plated in culture vessels in DMEM and cultured until 70-80% confluent, unless indicated otherwise. Cells were subjected to starvation by washing cells twice with 1× phosphate-buffered saline (PBS), followed by the addition of DMEM and 0.1% serum to each well and incubation for an additional 24 h. In the experiments for cell death induced by Glu-plasminogen (American Diagnostica Inc., Stamford, Conn.), phenol red-free DMEM was used.\n(§2) Western Blot Analysis. Western blot analysis and band intensity quantitation were performed as described previously (Chang W. T. et al., J Biol Chem., 2001, 276, 2221-7). Briefly, the protein concentration was measured by Bradford assay (Bio-Rad) according to the manufacturer's instructions. An equal amount of protein was separated by SDS-PAGE and transferred to polyvinylidene difluoride membrane. […] The blot was visualized by enhanced chemiluminescence (GE Healthcare) and analyzed using a Kodak Image Station 4000R system (Carestream Health, Rochester, N.Y.). […]"}, "[1]": {"system": "TGF-β-stimulated control lung fibroblasts", "assay": "TGF-β-mediated induction of stromal proteins in control lung fibroblasts (Western blot)", "type": "cell-based, human", "protocol": "as §1\n(§3) Western Blot Analysis. Western blot analysis and band intensity quantitation were performed as described previously (Chang W. T. et al., J Biol Chem., 2001, 276, 2221-7). Briefly, the protein concentration was measured by Bradford assay (Bio-Rad) according to the manufacturer's instructions. An equal amount of protein was separated by SDS-PAGE and transferred to polyvinylidene difluoride membrane. […] The blot was visualized by enhanced chemiluminescence (GE Healthcare) and analyzed using a Kodak Image Station 4000R system (Carestream Health, Rochester, N.Y.).\nIn further studies, we examined if inhibition of mTORC1 and/or mTORC2 would limit TGF-β-mediated induction of stromal genes. […]"}, "[2]": {"system": "Akt (Ser473 and T308) phosphorylation", "assay": "Basal Akt phosphorylation in IPF fibroblasts (Western blot)", "type": "cell-based, human", "conditions": "for suppression of basal Akt (Ser473) phosphorylation: dose-dependent, FIG. 1A/1B", "protocol": "as §1\nLung tissue was obtained from patients undergoing surgical biopsy for the diagnosis of interstitial lung disease or lung transplant for IPF, and non-neoplastic tissue was obtained from patients undergoing surgical lung cancer resection. The tissue was minced into small pieces with a scalpel and digested with type I collagenase (1 mg/ml; Invitrogen) and hyaluronidase (125 units/ml; Sigma) at 37° C. with agitation for 18 h in Dulbecco's modified Eagle's medium (DMEM; Invitrogen) supplemented with 10% fetal bovine serum. The dissociated tissues were incubated without shaking for 5 min at room temperature, followed by the separation of cell-enriched supernatant into a new tube. The cell fraction was centrifuged at 250×g for 5 min, and the pellet was then resuspended in DMEM with 10% fetal bovine serum. […] Surviving fibroblasts were cultured in DMEM supplemented with 10% fetal bovine serum at 5% CO2 at 37 ° C. […]\nas §2, with “instructions.” for “instructions. An equal amount of protein was separated by SDS-PAGE and transferred to polyvinylidene difluoride membrane.”"}, "[3]": {"system": "Akt (Ser473 and T308) activation", "assay": "TGF-β-mediated activation of Akt in control lung fibroblasts (Western blot)", "type": "cell-based, human", "protocol": "as §1, §3\nIn further studies, we examined if inhibition of mTORC1 and/or mTORC2 would limit TGF-β-mediated induction of stromal genes."}, "mTORC1": {"target": "mTORC1 (Homo sapiens, UniProt P42345)", "conditions": "in vitro; cited from earlier work"}, "mTORC2": {"target": "mTORC2 (Homo sapiens, UniProt P42345)", "conditions": "in vitro; cited from earlier work"}, "[4]": {"conditions": "mice, PP242 30 mg/kg oral daily", "quoted_text": "Six-week-old male C57BL/6 mice weighing between 20 to 23 g were obtained from The Jackson Laboratory (Bar Harbor, Me.) and all care was in accordance with the National Institutes of Health Guide for Animal Welfare Act. […] All mice were sacrificed on day 14 and the right lungs were first fixed by inflation with buffered 10% formalin solution, then incubated in the same solution for 24 hours. After paraffin-embedding, sections were processed, and stained with hematoxylin and eosin (H&E) for light microscopy. The left lungs were frozen in liquid nitrogen for subsequent analysis of hydroxyproline content."}, "[5]": {"system": "bleomycin-induced pulmonary fibrosis", "assay": "Murine model of bleomycin-induced pulmonary fibrosis", "quoted_text": "Murine model of bleomycin-induced pulmonary fibrosis. Six-week-old male C57BL/6 mice weighing between 20 to 23 g were obtained from The Jackson Laboratory (Bar Harbor, Me.) and all care was in accordance with the National Institutes of Health Guide for Animal Welfare Act. Mice were administrated 0.1 ml of sterile saline (N=5) or bleomycin (Blenoxane, Novaplus, 1.5 U/kg of body weight; VHA Inc., Nippon Kayaku Co., Tokyo, Japan) at day 0 via intratracheal instillation under anesthesia (Krishna, G. et al., Am J Pathol. 2001, 158, 997-1004). […] All mice were sacrificed on day 14 and the right lungs were first fixed by inflation with buffered 10% formalin solution, then incubated in the same solution for 24 hours. After paraffin-embedding, sections were processed, and stained with hematoxylin and eosin (H&E) for light microscopy. The left lungs were frozen in liquid nitrogen for subsequent analysis of hydroxyproline content.\nHistological Scoring of Fibrosis. The severity of fibrosis from each lung section was assessed by Ashcroft score (Ashcroft T. et al., J Clin Pathol, 1988, 41, 467-70). Briefly, the grade of lung fibrosis was scored on a scale from 0 to 8 by examining 30 randomly chosen fields per sample at a magnification of ×100. Criteria for grading lung fibrosis were as follows: grade 0, normal lung; grade 1, minimal fibrous thickening of alveolar or bronchiolar walls; grade 3, moderate thickening of walls without obvious damage to lung architecture; grade 5, increased fibrosis with definite damage to lung structure and formation of fibrous bands or small fibrous masses; grade 7, severe distortion of structure and large fibrous areas; grade 8, total fibrous obliteration of fields. If there was difficulty in deciding between two odd-numbered categories, the field would be given the intervening even-numbered grade."}, "[6]": {"conditions": "control lung fibroblasts + TGF-β"}, "[7]": {"conditions": "TGF-β-treated control fibroblasts"}, "[8]": {"conditions": "PP242 30 mg/kg oral daily from Day -1, bleomycin 1.5 U/kg intratracheal, Day 14, vs bleomycin alone"}, "[9]": {"conditions": "mouse lung, PP242 30 mg/kg oral"}}, "data": [{"smiles": "CO[C@H]1C[C@@H]2CC[C@@H](C)[C@@](O)(O2)C(=O)C(=O)N2CCCC[C@H]2C(=O)O[C@H]([C@H](C)C[C@@H]2CC[C@@H](O)[C@H](OC)C2)CC(=O)[C@H](C)/C=C(\\C)[C@@H](O)[C@@H](OC)C(=O)[C@H](C)C[C@H](C)/C=C/C=C/C=C/1C", "note": "[rapamycin]", "values": [{"measurement": "inhibition of basal expression of type I collagen", "setting": "IPF fibroblasts", "value": 50, "unit": "%"}, {"measurement": "blocking of TGF-β induction of FN", "setting": "[1]; [6]", "value": "30%-50%"}, {"measurement": "blocking of TGF-β induction of SPARC", "setting": "[1]; [6]", "value": "30%-50%"}, {"measurement": "blocking of TGF-β induction of α-SMA", "setting": "[1]; [6]", "value": "30%-50%"}, {"measurement": "inhibition of TGF-β induction of PAI-1", "setting": "[1]; [6]", "value": 30, "unit": "%"}, {"measurement": "inhibition of type I collagen in the presence of TGF-β", "setting": "[1]; control lung fibroblasts + TGF-β, FIG. 2C", "value": 45, "unit": "%"}]}, {"smiles": "COc1ccc(-c2ccc3c(N4CCOCC4)nc(N4C[C@@H](C)O[C@@H](C)C4)nc3n2)cc1CO", "note": "[Ku-0063794]", "values": [{"measurement": "suppression of basal Akt (T308) phosphorylation", "setting": "[2]; FIG. 1B", "value": "more effective than rapamycin or PP242"}, {"measurement": "suppression of basal Akt (Ser473) phosphorylation", "setting": "[2]", "value": "suppressed"}, {"measurement": "blocking of TGF-β activation of Akt (Ser473)", "setting": "[3]", "value": "blocked"}, {"measurement": "blocking of TGF-β activation of Akt (T308)", "setting": "[3]", "value": "blocked"}, {"measurement": "inhibition of TGF-β induction of PAI-1", "setting": "[1]; [6]", "value": 30, "unit": "%"}]}, {"smiles": "O=c1[nH]c2ccccc2n1C1CCN(Cc2ccc(-c3nc4cc5[nH]cnc5cc4nc3-c3ccccc3)cc2)CC1", "note": "[Akti VIII]", "values": [{"measurement": "suppression of basal FN expression (in words)", "setting": "IPF fibroblasts; FIG. 3C", "value": "suppressed"}, {"measurement": "suppression of basal type I collagen expression (in words)", "setting": "IPF fibroblasts; FIG. 3C", "value": "suppressed"}, {"measurement": "suppression of basal α-SMA expression (in words)", "setting": "IPF fibroblasts; FIG. 3C", "value": "suppressed"}, {"measurement": "inhibition of TGF-β induction of FN (in words)", "setting": "[1]; [7]", "value": "inhibited"}, {"measurement": "inhibition of TGF-β induction of type I collagen (in words)", "setting": "[1]; [7]", "value": "inhibited"}]}, {"smiles": "CC(C)n1nc(-c2cccc(C(=O)NC3=NCCS3)c2)c2c(N)ncnc21", "note": "[PP30]", "values": [{"measurement": "inhibition of mTOR in mTORC1", "setting": "mTORC1", "value": "inhibit"}, {"measurement": "inhibition of mTOR in mTORC2", "setting": "mTORC2", "value": "inhibit"}]}, {"smiles": "CC(C)n1nc(-c2cc3cc(O)ccc3[nH]2)c2c(N)ncnc21", "note": "[PP242]", "values": [{"measurement": "suppression of basal Akt (Ser473) phosphorylation", "setting": "[2]", "value": "suppressed"}, {"measurement": "tolerability", "setting": "[4]", "value": "well tolerated"}, {"measurement": "reduction in hydroxyproline content", "setting": "[5]; [8]", "value": 40, "unit": "%"}, {"measurement": "reduction in the Ashcroft score", "setting": "[5]; [8]", "value": 70, "unit": "%"}, {"measurement": "positive staining for picosirius red (marker of new collagen synthesis)", "setting": "[5]; mouse lung after bleomycin, PP242 30 mg/kg oral", "value": "marked reduction"}, {"measurement": "accumulation of α-SMA-positive fibroblasts following bleomycin", "setting": "[5]; [9]", "value": "inhibited"}, {"measurement": "bleomycin-mediated induction of MTS1/S100A4", "setting": "[5]; [9]", "value": "significantly inhibited"}, {"measurement": "bleomycin-mediated induction of PAI-1", "setting": "[5]; [9]", "value": "a trend, but not a statistically significant inhibition"}, {"measurement": "bleomycin-mediated induction of SPARC", "setting": "[5]; [9]", "value": "significantly inhibited"}, {"measurement": "bleomycin-mediated induction of matrix metalloproteinase 7/matrilysin 1 (MMP-7)", "setting": "[5]; [9]", "value": "significantly inhibited"}, {"measurement": "Ashcroft score (scale from 0 to 8)", "setting": "[5]; saline+PP242 group, no bleomycin", "value": "zero"}]}]}
